Experimental data: ChEMBL document CHEMBL5244272 (Eur J Med Chem, 2021)

Columns and labels:
Plasmodium falciparum [1] = assay: Antimalarial activity against ART-resistant Plasmodium falciparum harboring R539T mutant assessed as increase in survival at 700 nM; type: functional
Plasmodium falciparum [2] = assay: Potency index, ratio of artemisinin IC50 to test compound IC50 for Plasmodium falciparum W2; type: functional
Plasmodium falciparum [3] = assay: Potency index, ratio of artemisinin IC50 to test compound IC50 for Plasmodium falciparum D6; type: functional
Plasmodium falciparum [4] = assay: Antimalarial activity against chloroquine-resistant Plasmodium falciparum K1; type: functional, organism-based
Plasmodium berghei [5] = assay: Antimalarial activity against Plasmodium berghei infected in mouse; type: functional; details: Plasmodium berghei
Plasmodium falciparum [6] = assay: Antimalarial activity against chloroquine sensitive Plasmodium falciparum FCR-3; type: functional, organism-based
Plasmodium falciparum [7] = assay: Antimalarial activity against chloroquine-sensitive Plasmodium falciparum HB3; type: functional, organism-based
Plasmodium falciparum [8] = assay: Antimalarial activity against late blood stage Plasmodium falciparum NF54 gametocytes; type: functional, organism-based
Plasmodium falciparum [9] = assay: Antimalarial activity against Plasmodium falciparum Dd2; type: functional, organism-based
Plasmodium falciparum [10] = assay: Antimalarial activity against Plasmodium falciparum NF54; type: functional, organism-based
Plasmodium falciparum [11] = assay: Antimalarial activity against Plasmodium falciparum K1; type: functional, organism-based
Plasmodium falciparum [12] = assay: Antimalarial activity against Plasmodium falciparum RKL9; type: functional, organism-based
Plasmodium falciparum [13] = assay: Antimalarial activity against chloroquine-sensitive Plasmodium falciparum NF54; type: functional, organism-based
Plasmodium falciparum [14] = assay: Antimalarial activity against Plasmodium falciparum 3D7; type: functional, organism-based
Plasmodium falciparum [15] = assay: Antimalarial activity against Plasmodium falciparum W2; type: functional, organism-based
Plasmodium berghei [16] = assay: Antimalarial activity against Plasmodium berghei ANKA infected in po dosed mouse; type: functional
Plasmodium yoelii = assay: Antimalarial activity against Plasmodium yoelii infected in mouse; type: functional
Plasmodium berghei [17] = assay: Antimalarial activity against Plasmodium berghei infected in po dosed mouse; type: functional
Plasmodium berghei [18] = assay: Antimalarial activity against Plasmodium berghei infected in sc dosed mouse; type: functional; details: Plasmodium berghei
Plasmodium falciparum [19] = assay: Antimalarial activity against chloroquine-sensitive Plasmodium falciparum NF54 infected in iv dosed mouse; type: functional
Plasmodium falciparum [20] = assay: Antimalarial activity against chloroquine-sensitive Plasmodium falciparum NF54 infected in po dosed mouse; type: functional

c1cc([C@H]2CC[C@]3(CC2)OOC2(O3)C3CC4CC(C3)CC2C4)ccc1OCCN1CCOCC1 (some centres undefined)
Activity (Plasmodium falciparum [1]): <0.01%

COC(=O)/C=C/N1C(=O)[C@H](C)[C@@H]2CC[C@@H](C)[C@@H]3CC[C@]4(C)OO[C@]32[C@H]1O4
Ratio IC50 (Plasmodium falciparum [2]): 1.2 | Ratio IC50 (Plasmodium falciparum [3]): 2

CC1(OCc2ccccc2)CCC2CC1OO[C@]2(/C=C\c1ccc(Cl)cc1)c1ccccc1 (some centres undefined)
IC50 (Plasmodium falciparum [4]): 23 nM

CCC(O)C[C@H]1O[C@@H]2O[C@]3(C)CC[C@H]4[C@H](C)CC[C@@H]([C@H]1C)[C@@]24OO3 (some centres undefined)
Ratio IC50 (Plasmodium falciparum [2]): 4.8 | Ratio IC50 (Plasmodium falciparum [3]): 5.8

C[C@H]1[C@@H](Oc2ccc(C(F)(F)F)cc2)O[C@@H]2O[C@]3(C)CC[C@H]4[C@H](C)CC[C@@H]1[C@@]24OO3
ED50 (Plasmodium berghei [5]): 2.12 mg/kg

C[C@H]1[C@H](n2cc(-c3cccc(Cl)c3)nn2)O[C@@H]2O[C@]3(C)CC[C@H]4[C@H](C)CC[C@@H]1[C@@]24OO3
IC50 (Plasmodium falciparum [6]): 1.3 nM

CNCCO[C@H]1O[C@@H]2O[C@]3(C)CC[C@H]4[C@H](C)CC[C@@H]([C@H]1C)[C@@]24OO3
IC50 (Plasmodium falciparum [7]): 2.7 nM | IC50 (Plasmodium falciparum [4]): 2.4 nM

C[C@H]1[C@@H](CC(O)C(C)(C)C)O[C@@H]2O[C@]3(C)CC[C@H]4[C@H](C)CC[C@@H]1[C@@]24OO3 (some centres undefined)
Ratio IC50 (Plasmodium falciparum [2]): 6.8 | Ratio IC50 (Plasmodium falciparum [3]): 5.4

CC(=O)/C=C/N1C(=O)[C@H](C)[C@@H]2CC[C@@H](C)[C@@H]3CC[C@]4(C)OO[C@]32[C@H]1O4
Ratio IC50 (Plasmodium falciparum [2]): 1.25 | Ratio IC50 (Plasmodium falciparum [3]): 2.54

C[C@H]1[C@H](N2CCN(C(=O)c3ccc(F)cc3)CC2)O[C@@H]2O[C@]3(C)CC[C@H]4[C@H](C)CC[C@@H]1[C@@]24OO3
IC50 (Plasmodium falciparum [8]): 0.6 nM | IC50 (Plasmodium falciparum [9]): 1.5 nM | IC50 (Plasmodium falciparum [10]): 1.06 nM | IC50 (Plasmodium falciparum [11]): 2.1 nM

CCN(Cc1cc(C2(C)OOC(c3ccccc3O)OO2)ccc1O)c1ccccc1 (centres undefined)
IC50 (Plasmodium falciparum [12]): 5.3 µg/mL

N[C@H]1CC[C@@H](Oc2ccc([C@H]3CC[C@]4(CC3)OOC3(O4)C4CC5CC(C4)CC3C5)cc2)CC1 (some centres undefined)
Activity (Plasmodium falciparum [1]): <0.01%

C[C@H]1[C@H](OC(=O)c2cccc([N+](=O)[O-])c2)O[C@@H]2O[C@]3(C)CC[C@H]4[C@H](C)CC[C@@H]1[C@@]24OO3
IC50 (Plasmodium falciparum [13]): 10.6 nM

COc1cc(C2OOC3(C)C=CC(=O)CC3O2)ccc1O (centres undefined)
IC50 (Plasmodium falciparum [12]): 1060 nM | IC50 (Plasmodium falciparum [14]): 1240 nM

CO[C@H]1O[C@@H]2O[C@@]3(C)CC[C@H]4[C@H](C)CC[C@@H]([C@H]1C)[C@@]24OO3
IC50 (Plasmodium falciparum [10]): 2 nM | IC50 (Plasmodium falciparum [15]): 7 nM | ED50 (Plasmodium berghei [5]): 6 mg/kg | ED50 (Plasmodium berghei [16]): 10.57 mg/kg | IC50 (Plasmodium falciparum [11]): 9 nM

C[C@H]1[C@H](N2CCN(C(=O)Nc3ccccc3)CC2)O[C@@H]2O[C@]3(C)CC[C@H]4[C@H](C)CC[C@@H]1[C@@]24OO3
IC50 (Plasmodium falciparum [9]): 7.5 nM | IC50 (Plasmodium falciparum [10]): 1.3 nM

FC1(F)C2CC3CC1CC(C2)C31OO[C@]2(CC[C@@H](c3ccc(OCCN4CCOCC4)cc3)CC2)O1 (some centres undefined)
Activity (Plasmodium falciparum [1]): <0.01%

C[C@H]1[C@@H](CCOCc2cccc(F)c2)O[C@@H]2O[C@]3(C)CC[C@H]4[C@H](C)CC[C@@H]1[C@@]24OO3
IC50 (Plasmodium falciparum [7]): 0.35 nM | IC50 (Plasmodium falciparum [4]): 3.78 nM | ED50 (Plasmodium berghei [5]): 5.08 mg/kg

CC1CC2CCC(C1)[C@@](C)(/C=C/[C@@H](O)C(C)(C)O)OO2 (some centres undefined)
ED50 (Plasmodium yoelii): 95 mg/kg | IC50 (Plasmodium falciparum [11]): 56 nM

CC(=O)CN1C(=O)[C@H](C)[C@@H]2CC[C@@H](C)[C@@H]3CC[C@]4(C)OO[C@]32[C@H]1O4
Ratio IC50 (Plasmodium falciparum [2]): 3 | Ratio IC50 (Plasmodium falciparum [3]): 3.2

CC12C=CC(=O)CC1OC(c1c[nH]c3ccccc13)OO2 (centres undefined)
IC50 (Plasmodium falciparum [12]): 1170 nM | IC50 (Plasmodium falciparum [14]): 1240 nM

CCN(CC)Cc1ccc(CO[C@H]2O[C@@H]3O[C@]4(C)CC[C@H]5[C@H](C)CC[C@@H]([C@H]2C)[C@@]35OO4)cc1
IC50 (Plasmodium falciparum [7]): 3.1 nM | IC50 (Plasmodium falciparum [4]): 1.4 nM

COC(=O)CC[C@@H](C)[C@H]1CC[C@H]2[C@@H]3CC[C@@H]4CC5(CC[C@]4(C)[C@H]3C[C@H](OC(C)=O)[C@]12C)OOC(c1ccccc1)(C(F)(F)F)O5 (some centres undefined)
IC50 (Plasmodium falciparum [4]): > 231 nM

C[C@@H]1CC[C@H]2[C@@H](C)C(=O)N(CC(=O)c3ccccc3)[C@@H]3O[C@]4(C)CC[C@@H]1[C@@]23OO4
Ratio IC50 (Plasmodium falciparum [2]): 1.8 | Ratio IC50 (Plasmodium falciparum [3]): 1.8

C[C@H]1[C@H](c2cccn2C)O[C@@H]2O[C@]3(C)CC[C@H]4[C@H](C)CC[C@@H]1[C@@]24OO3
ED90 (Plasmodium berghei [17]): 8.5 mg/kg | ED50 (Plasmodium berghei [18]): 0.7 mg/kg

C[C@H]1[C@H](CC(COC(=O)c2cc[n+]([O-])cc2)C[C@H]2O[C@@H]3O[C@]4(C)CC[C@H]5[C@H](C)CC[C@@H]([C@H]2C)[C@@]35OO4)O[C@@H]2O[C@]3(C)CC[C@H]4[C@H](C)CC[C@@H]1[C@@]24OO3 (some centres undefined)
ED50 (Plasmodium falciparum [19]): 0.8 mg/kg | EC50 (Plasmodium falciparum [13]): 0.53 nM | ED50 (Plasmodium falciparum [20]): 2 mg/kg

C[C@H]1[C@H](N2CCN(C(=O)Nc3ccc(C(F)(F)F)cc3)CC2)O[C@@H]2O[C@]3(C)CC[C@H]4[C@H](C)CC[C@@H]1[C@@]24OO3
IC50 (Plasmodium falciparum [8]): 0.6 nM | IC50 (Plasmodium falciparum [9]): 12.2 nM | IC50 (Plasmodium falciparum [10]): 1.83 nM | IC50 (Plasmodium falciparum [11]): 1.12 nM
